Test results: US8614327B2 (Vertex Pharmaceuticals Incorporated, priority 2004, dated 2013)

Biological target: T1, ΔF508-CFTR (Homo sapiens, UniProt P13569, DEL508-508)
T1 construct: expressed in transfected cells
Experiment: Membrane potential optical (FRET/VIPR) assay, identification of potentiator compounds
Type: cell-based
Settings: Table 3, assay not given; for % Activity: relative efficacy
How it was run: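 NIH3T3 mouse fibroblasts stably expressing ΔF508-CFTR, temperature-corrected 24 h at 27° C., read on VIPR by FRET between CC2-DMPE and DiSBAC2(3). Potentiators identified in a double-addition format, first adding chloride-free (gluconate) medium with or without compound.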

T1 sequence (P13569 with tags, fused parts or gaps DEL508-508): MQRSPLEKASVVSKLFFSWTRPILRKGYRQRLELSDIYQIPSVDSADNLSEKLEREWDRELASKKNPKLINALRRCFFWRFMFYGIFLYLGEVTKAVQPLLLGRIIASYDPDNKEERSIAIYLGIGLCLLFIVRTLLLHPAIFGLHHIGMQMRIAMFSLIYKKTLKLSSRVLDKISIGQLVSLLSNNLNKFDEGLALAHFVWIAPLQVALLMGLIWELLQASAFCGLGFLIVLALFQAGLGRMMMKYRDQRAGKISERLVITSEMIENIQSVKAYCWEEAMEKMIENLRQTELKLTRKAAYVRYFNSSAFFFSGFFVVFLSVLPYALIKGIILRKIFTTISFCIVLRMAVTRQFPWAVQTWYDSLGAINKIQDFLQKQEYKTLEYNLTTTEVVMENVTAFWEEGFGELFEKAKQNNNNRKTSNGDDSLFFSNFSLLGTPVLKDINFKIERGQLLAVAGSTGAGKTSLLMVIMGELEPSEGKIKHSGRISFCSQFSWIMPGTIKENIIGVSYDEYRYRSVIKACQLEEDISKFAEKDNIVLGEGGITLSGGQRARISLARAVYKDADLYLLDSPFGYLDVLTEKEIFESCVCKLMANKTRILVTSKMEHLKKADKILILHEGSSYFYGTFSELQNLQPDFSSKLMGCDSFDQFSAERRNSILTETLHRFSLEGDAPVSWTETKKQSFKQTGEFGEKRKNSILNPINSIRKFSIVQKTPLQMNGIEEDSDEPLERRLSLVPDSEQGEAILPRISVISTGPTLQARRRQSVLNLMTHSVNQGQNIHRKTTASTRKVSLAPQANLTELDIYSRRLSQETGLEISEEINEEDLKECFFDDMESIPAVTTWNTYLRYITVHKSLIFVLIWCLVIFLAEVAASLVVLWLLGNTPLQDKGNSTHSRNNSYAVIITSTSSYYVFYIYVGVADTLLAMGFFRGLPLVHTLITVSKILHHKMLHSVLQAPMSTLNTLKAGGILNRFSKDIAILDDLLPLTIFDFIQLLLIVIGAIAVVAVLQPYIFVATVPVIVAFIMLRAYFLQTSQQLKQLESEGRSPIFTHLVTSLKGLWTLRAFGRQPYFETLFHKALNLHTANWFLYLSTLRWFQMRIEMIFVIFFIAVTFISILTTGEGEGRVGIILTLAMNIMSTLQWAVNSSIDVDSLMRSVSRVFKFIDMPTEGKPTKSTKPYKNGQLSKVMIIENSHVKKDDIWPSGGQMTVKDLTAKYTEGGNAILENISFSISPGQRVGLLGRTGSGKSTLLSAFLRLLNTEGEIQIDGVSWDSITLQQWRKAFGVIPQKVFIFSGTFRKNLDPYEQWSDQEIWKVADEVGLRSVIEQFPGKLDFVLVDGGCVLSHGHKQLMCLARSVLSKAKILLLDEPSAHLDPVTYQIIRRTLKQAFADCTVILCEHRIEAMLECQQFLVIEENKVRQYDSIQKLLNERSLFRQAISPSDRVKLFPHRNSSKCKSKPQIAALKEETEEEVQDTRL

EC50	% Activity	Compound
10 to 25 µM	++ (between 25% to 100%)	Cc1c[nH]c2cccc(NC(=O)c3c[nH]c4ccccc4c3=O)c12 [Compound 338, N-(3-methyl-1H-indol-4-yl)-4-oxo-1H-quinoline-3-carboxamide]
< 10 µM	++ (between 25% to 100%)	N#Cc1c[nH]c2cc(NC(=O)c3c[nH]c4ccccc4c3=O)ccc12 [Compound 339, N-(3-cyano-1H-indol-6-yl)-4-oxo-1H-quinoline-3-carboxamide]
< 10 µM	++ (between 25% to 100%)	CCCc1ccc(NC(=O)c2c[nH]c3ccccc3c2=O)cc1NS(C)(=O)=O [Compound 340, N-(3-methylsulfonylamino-4-propyl-phenyl)-4-oxo-1H-quinoline-3-carboxamide]
< 10 µM	++ (between 25% to 100%)	CC(C)(C)COC(=O)NCC(C)(C)c1ccc(NC(=O)c2c[nH]c3ccccc3c2=O)cc1 [Compound 341, [2-methyl-2-[4-[(4-oxo-1H-quinolin-3-yl)carbonylamino]phenyl]-propyl]aminoformic acid neopentyl ester]
< 10 µM	++ (between 25% to 100%)	CC(C)c1ccc(-c2cc3cc[nH]c3cc2NC(=O)c2c[nH]c3ccccc3c2=O)cc1 [Compound 342, N-[5-(4-isopropylphenyl)-1H-indol-6-yl]-4-oxo-1H-quinoline-3-carboxamide]
10 to 25 µM	++ (between 25% to 100%)	CC(C)CNC(=O)c1cc2cc[nH]c2cc1NC(=O)c1c[nH]c2ccccc2c1=O [Compound 343, N-[5-(Isobutylcarbamoyl)-1H-indol-6-yl]-4-oxo-1H-quinoline-3-carboxamide]
–	++ (between 25% to 100%)	CCOc1ccccc1-c1ccccc1NC(=O)c1c[nH]c2ccccc2c1=O [Compound 344, N-[2-(2-ethoxyphenyl)phenyl]-4-oxo-1H-quinoline-3-carboxamide]
< 10 µM	++ (between 25% to 100%)	O=C(Nc1ccc2cc[nH]c2c1)c1cnc2ccc(F)cc2c1O [Compound 345, 6-fluoro-4-hydroxy-N-(1H-indol-6-yl)quinoline-3-carboxamide]
< 10 µM	++ (between 25% to 100%)	O=C(Nc1ccccc1)c1c[nH]c2cc(C(F)(F)F)ccc2c1=O [Compound 346, 4-oxo-N-phenyl-7-(trifluoromethyl)-1H-quinoline-3-carboxamide]
10 to 25 µM	++ (between 25% to 100%)	CN(C)CCNC(=O)c1ccc(-c2cc3cc[nH]c3cc2NC(=O)c2c[nH]c3ccccc3c2=O)cc1 [Compound 347, N-[5-[4-(2-dimethylaminoethylcarbamoyl)phenyl]-1H-indol-6-yl]-4-oxo-1H-quinoline-3-carboxamide]
< 10 µM	++ (between 25% to 100%)	CCOc1ccc(-c2ccccc2NC(=O)c2c[nH]c3ccccc3c2=O)cc1 [Compound 348, N-[2-(4-ethoxyphenyl)phenyl]-4-oxo-1H-quinoline-3-carboxamide]
< 10 µM	++ (between 25% to 100%)	O=C(Nc1cccc2ccccc12)c1c[nH]c2ccccc2c1=O [Compound 350, N-(1-naphthyl)-4-oxo-1H-quinoline-3-carboxamide]
< 10 µM	++ (between 25% to 100%)	CCc1cc2cc[nH]c2cc1NC(=O)c1c[nH]c2ccccc2c1=O [Compound 351, N-(5-ethyl-1H-indol-6-yl)-4-oxo-1H-quinoline-3-carboxamide]
< 10 µM	++ (between 25% to 100%)	CC(C)(C)OC(=O)NCCc1c[nH]c2cc(NC(=O)c3c[nH]c4ccccc4c3=O)ccc12 [Compound 352, 2-[6-[(4-oxo-1H-quinolin-3-yl)carbonylamino]-1H-indol-3-yl]ethylaminoformic acid tert-butyl ester]
< 10 µM	++ (between 25% to 100%)	CC(C)(C)OC(=O)Nc1ccc(C(C)(C)C)c(NC(=O)c2c[nH]c3ccccc3c2=O)c1 [Compound 353, [3-[(4-oxo-1H-quinolin-3-yl)carbonylamino]-4-tert-butyl-phenyl]aminoformic acid tert-butyl ester]
< 10 µM	++ (between 25% to 100%)	CN(Cc1ccccc1NC(=O)c1c[nH]c2ccccc2c1=O)C1CCCCC1 [Compound 354, N-[2-[(cyclohexyl-methyl-amino)methyl]phenyl]-4-oxo-1H-quinoline-3-carboxamide]
< 10 µM	++ (between 25% to 100%)	COc1ccccc1-c1ccccc1NC(=O)c1c[nH]c2ccccc2c1=O [Compound 355, N-[2-(2-methoxyphenyl)phenyl]-4-oxo-1H-quinoline-3-carboxamide]
< 10 µM	++ (between 25% to 100%)	CCCc1ccc(NC)cc1NC(=O)c1c[nH]c2ccccc2c1=O [Compound 356, N-(5-methylamino-2-propyl-phenyl)-4-oxo-1H-quinoline-3-carboxamide]
< 10 µM	++ (between 25% to 100%)	CC(C)c1c[nH]c2cc(NC(=O)c3c[nH]c4ccccc4c3=O)ccc12 [Compound 357, N-(3-isopropyl-1H-indol-6-yl)-4-oxo-1H-quinoline-3-carboxamide]
< 10 µM	++ (between 25% to 100%)	O=C(Nc1ccc2cc[nH]c2c1)c1cnc2ccc(Cl)cc2c1O [Compound 358, 6-chloro-4-hydroxy-N-(1H-indol-6-yl)quinoline-3-carboxamide]
10 to 25 µM	++ (between 25% to 100%)	CN(C)CCS(=O)(=O)Nc1cc(NC(=O)c2c[nH]c3ccccc3c2=O)cc(C(F)(F)F)c1 [Compound 359, N-[3-(2-dimethylaminoethylsulfonylamino)-5-(trifluoromethyl)phenyl]-4-oxo-1H-quinoline-3-carboxamide]
< 10 µM	++ (between 25% to 100%)	O=C(Nc1ccc(OC(F)F)cc1)c1c[nH]c2ccccc2c1=O [Compound 360, N-[4-(difluoromethoxy)phenyl]-4-oxo-1H-quinoline-3-carboxamide]
–	+++ (>100%)	COc1ccc(OC)c(-c2ccccc2NC(=O)c2c[nH]c3ccccc3c2=O)c1 [Compound 361, N-[2-(2,5-dimethoxyphenyl)phenyl]-4-oxo-1H-quinoline-3-carboxamide]
< 10 µM	++ (between 25% to 100%)	CC(C)(C)c1ccc(NC(=O)c2c[nH]c3ccccc3c2=O)c(Cl)c1 [Compound 362, N-(2-chloro-4-tert-butyl-phenyl)-4-oxo-1H-quinoline-3-carboxamide]
